Experimental data as given in patent publication US20150253306A1 (priority 2012, published 2015).

Tested on: intact platelets
Test: mitochondrial respiration of intact platelets (titration protocol)
Type: cell-based, human
Procedure: Data was recorded with DatLab software 4.3.
Integrated respiration of intact cells with endogenous mitochondrial substrates was evaluated with two different titration protocols. Platelets were suspended in either PBS-glucose or the control subject's own plasma. […] To evaluate the contribution of respiration independent of ADP phosphorylation, oligomycin (1 μg/ml, ATP-synthase inhibitor) was sequentially added inducing LEAK respiration state (also known as oligomycin-induced state 4 respiration). […] Rotenone (2 μM, complex I [CI] inhibitor) and antimycin-A (1 μg/ml, complex III [CIII] inhibitor) were then sequentially added to inhibit the ETS providing the residual oxygen consumption which was subtracted from the different respiratory parameters in further analyses.
In order to evaluate the influence on maximal respiratory capacity by the inhibition of ATP-synthase, a second experimental protocol was performed, where ETS capacity was evaluated by direct titration of FCCP after stabilization of routine respiration, followed by the same inhibitors as above. Control ratios were derived from maximal, FCCP-stimulated, respiration divided by LEAK respiration (ETS/LEAK) and routine respiration (ETS/routine).

Molecule	further inhibition of respiration after rotenone (intact platelets, antimycin-A 1 μg/ml added after rotenone 2 μM)	inhibition at 2 µM (Homo sapiens, Platelet, read-out: inhibition of respiration) [%]
antimycin-A	no further inhibition	–
C=C(C)[C@H]1Cc2c(ccc3c2O[C@@H]2COc4cc(OC)c(OC)cc4[C@@H]2C3=O)O1 [rotenone]	–	~99
